Legend:
[1] = patients treated with AChE inhibitors such as tacrine; cited from earlier work
[2] = cited from earlier work
[3] = Alzheimer's disease patients; cited from earlier work
human mAChR M4 = target: T1, human mAChR M4 (Homo sapiens, UniProt P08173); experiment: mAChR M4 cell-based functional assay: calcium mobilization (Fluo-4, FDSS), potentiation of EC20 acetylcholine response in hM4-Gqi5 CHO-K1 cells; settings: human M4; for Emax at 30 µM: CHO-K1, % ACh maximum at 30 μM; for EC50: potentiation of EC20 acetylcholine response, calcium mobilization
T1 construct: expressed in transfected cells; host or cells: CHO-K1 (American Type Culture Collection), stably expressing hM4 and Gqi5
T1 sequence (P08173 1-479): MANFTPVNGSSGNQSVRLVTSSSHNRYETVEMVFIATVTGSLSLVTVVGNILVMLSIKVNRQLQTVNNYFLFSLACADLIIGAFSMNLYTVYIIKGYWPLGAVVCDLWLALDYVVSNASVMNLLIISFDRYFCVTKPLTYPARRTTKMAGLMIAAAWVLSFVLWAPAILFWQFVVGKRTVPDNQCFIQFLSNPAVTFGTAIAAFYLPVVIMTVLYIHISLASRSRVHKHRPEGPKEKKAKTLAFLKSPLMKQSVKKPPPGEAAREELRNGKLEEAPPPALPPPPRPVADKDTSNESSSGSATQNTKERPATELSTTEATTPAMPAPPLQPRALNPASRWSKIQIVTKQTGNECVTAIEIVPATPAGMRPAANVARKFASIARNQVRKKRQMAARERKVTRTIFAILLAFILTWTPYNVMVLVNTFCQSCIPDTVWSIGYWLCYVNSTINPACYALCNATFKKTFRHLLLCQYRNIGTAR
How it was run: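 CHO-K1 cells stably co-expressing human M4 and chimeric Gqi5, loaded with Fluo-4 AM (50 min, 37 °C). Compounds in 11-point 1:3 series added first; EC20 acetylcholine added at 144 s and again at 230 s. Calcium read on FDSS at 1 Hz; EC50 and Emax from four-parameter logistic fit of potentiated EC20 response.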

Emax at 30 µM (human mAChR M4) [%]	EC50 (human mAChR M4) [µM]	Compound	other results
–	–	Nc1c2c(nc3ccccc13)CCCC2 [tacrine]	patients with elevated liver transaminases (hepatotoxicity) [1]: about 30%
–	–	CCCCCCOc1nsnc1C1=CCCN(C)C1 [xanomeline]	catalepsy ([2]; animal models): without causing catalepsy; activity in animal models with similar profiles to known antipsychotic drugs [2]: active; psychotic behavioral symptoms such as delusions, suspiciousness, vocal outbursts, and hallucinations [3]: reduce psychotic behavioral symptoms; treatment induced side effects [3]: gastrointestinal effects
79	1.19	Cc1cc2nccc(=O)n2nc1N1CCc2ncc(-c3cc(C#N)n(C)c3C)cc2C1 [Compound 1-423, 1,5-dimethyl-4-(6-(8-methyl-4-oxo-4H-pyrimido[1,2-b]pyridazin-7-yl)-5,6,7,8-tetrahydro-1,6-naphthyridin-3-yl)-1H-pyrrole-2-carbonitrile]	–
80	0.217	Cc1c(N2CCc3ncc(-c4ccc(F)cc4F)cc3C2)nn2c(=O)ccnc2c1C [Compound 1-347, 7-(3-(2,4-difluorophenyl)-7,8-dihydro-1,6-naphthyridin-6(5H)-yl)-8,9-dimethyl-4H-pyrimido[1,2-b]pyridazin-4-one]	–
76	0.446	Cc1cc(=O)n2nc(N3CCc4ncc(-c5cccc(F)c5)cc4C3)c(C)cc2n1 [Compound 1-211, 7-(3-(3-fluorophenyl)-7,8-dihydro-1,6-naphthyridin-6(5H)-yl)-2,8-dimethyl-4H-pyrimido[1,2-b]pyridazin-4-one]	–
83	0.722	Cc1cc(=O)n2nc(N3CCc4ncc(-c5ccc(N(C)C)nc5)cc4C3)c(C)c(C)c2n1 [Compound 1-121, 7-(3-(6-(dimethylamino)pyridin-3-yl)-7,8-dihydro-1,6-naphthyridin-6(5H)-yl)-2,8,9-trimethyl-4H-pyrimido[1,2-b]pyridazin-4-one]	–
81	0.338	Cc1c(N2CCc3ncc(-c4cnn(CCN5CCOCC5)c4)cc3C2)nn2c(=O)cc(C(F)F)nc2c1C [Compound 1-173, 2-(difluoromethyl)-8,9-dimethyl-7-(3-(1-(2-morpholinoethyl)-1H-pyrazol-4-yl)-7,8-dihydro-1,6-naphthyridin-6(5H)-yl)-4H-pyrimido[1,2-b]pyridazin-4-one]	–
85	0.007	Cc1cc2nc(C3CC3)cc(=O)n2nc1N1CCc2ncc(N3CCCn4nccc43)cc2C1 [Compound 2-15, 2-cyclopropyl-7-(3-(6,7-dihydropyrazolo[1,5-a]pyrimidin-4(5H)-yl)-7,8-dihydro-1,6-naphthyridin-6(5H)-yl)-8-methyl-4H-pyrimido[1,2-b]pyridazin-4-one]	–
87	0.209	Cc1ccc(-c2cnc3c(c2)CN(c2nn4c(=O)c(C)c(C)nc4cc2C)CC3)cn1 [Compound 1-83, 2,3,8-trimethyl-7-(3-(6-methylpyridin-3-yl)-7,8-dihydro-1,6-naphthyridin-6(5H)-yl)-4H-pyrimido[1,2-b]pyridazin-4-one]	–
83	0.02	Cc1c(N2CCc3ncc(N4CCCn5nccc54)cc3C2)nn2c(=O)cc(C(F)(F)F)nc2c1C [Compound 2-30, 7-(3-(6,7-dihydropyrazolo[1,5-a]pyrimidin-4(5H)-yl)-7,8-dihydro-1,6-naphthyridin-6(5H)-yl)-8,9-dimethyl-2-(trifluoromethyl)-4H-pyrimido[1,2-b]pyridazin-4-one]	–
84	0.398	Cc1cc2nccc(=O)n2nc1N1CCc2ncc(N3CCOC(c4ccc(F)cc4)C3)cc2C1 (centres unmarked) [Compound 2-64, 7-(3-(2-(4-fluorophenyl)morpholino)-7,8-dihydro-1,6-naphthyridin-6(5H)-yl)-8-methyl-4H-pyrimido[1,2-b]pyridazin-4-one]	–
